Source: patent US5449612A, “Process for identifying candida by means of chromogenic substances” (Serbio, priority 1990, dated 1995)
Non-standard residues stand in square brackets, D forms with d. Residues, ends and D or L forms follow the SMILES beside them. *: point of attachment. Hyp = O=C(O)[C@@H]1C[C@@H](O)CN1; pNA = O=[N+]([O-])c1ccc(N*)cc1; Phg = N[C@H](C(=O)O)c1ccccc1; Pip = O=C(O)[C@@H]1CCCCN1; Boc = CC(C)(C)OC(=O)*

Assays:
Candida guillermondii = experiment: Tests on substrates against Candida guillermondii; parameters: Reading at 24 h: key to the marks not given beside the values
T. glabrata = experiment: Tests on substrates against T. glabrata, colour reading on buffered gelose; for T. GLABRATA reading at 24 h: key: -: none; +: weak; ++: moderate; +++: intense; ++++: very intense; format: cell-based, Torulopsis glabrata; conditions: for T. GLABRATA reading at 24 h: pH 6
Candida krusei = experiment: Tests on substrates against Candida krusei, colour reading on buffered gelose; format: cell-based; conditions: Table IV; medium pH 6.0; note: key: -: none; +: weak; ++: moderate; +++: intense; ++++: very intense
Candida tropicalis = experiment: Tests on substrates against Candida tropicalis, colour reading on buffered gelose; format: cell-based; conditions: for C. TROPICALIS reading at 24 h: Table III, medium pH 6.0; for Reading at 24 h: Table II, medium pH 6.0, YNB, glucose, agar, gentamycin
Candida albicans = experiment: Tests on substrates against Candida albicans, colour reading on buffered gelose; format: cell-based; conditions: Table I; for Reading at 24 h: medium pH 6.0, YNB, glucose, agar, gentamycin, coloration or fluorescence
C. tropicalis = experiment: Diagnosis from isolated colonies on gelose 2/5; format: cell-based, Candida tropicalis

CC(C)(C)OC(=O)NCC(=O)N1CCC[C@H]1C(=O)N[C@@H](CCCNC(=N)N)C(=O)Nc1ccc([N+](=O)[O-])cc1 [Boc-Gly-L-Pro-L-Arg-pNA.AcOH] (Boc-Gly-Pro-Arg-pNA)
Specificity: interference with C. guillermondii (Candida guillermondii; Table I): (d)
Specificity: interference with T. glabrata (T. glabrata): (e) and (f)
T. GLABRATA reading at 24 h (T. glabrata): +++
Reading at 24 h (Candida krusei): -
Specificity: interference with C. tropicalis (Candida tropicalis; Table I): (b)
C. TROPICALIS reading at 24 h (Candida tropicalis): +
Specificity: interference with C. tropicalis (Candida tropicalis; Table IV): (b)
Reading at 24 h (Candida albicans): ++

CC(C)(C)OC(=O)N1C[C@H](O)C[C@H]1C(=O)N1CCC[C@H]1C(=O)N[C@@H](CCCNC(=N)N)C(=O)Nc1ccc([N+](=O)[O-])cc1 [Boc-L-4Hyp-L-Pro-L-Arg-pNA.AcOH] (Boc-[Hyp]-Pro-Arg-pNA)
Specificity: interference with C. tropicalis (Candida tropicalis; Table I): (b)
Reading at 24 h (Candida albicans): ++++

CC(C)C[C@H](NC(=O)OC(C)(C)C)C(=O)N[C@@H](CO)C(=O)N[C@H](C(=O)N[C@@H](CCCNC(=N)N)C(=O)Nc1ccc([N+](=O)[O-])cc1)[C@@H](C)O [Boc-L-Leu-L-Ser-L-Thr-L-Arg-pNA.AcOH] (Boc-LSTR-pNA)
Reading at 24 h (Candida guillermondii; Table V): ++++
Specificity: interference with C. tropicalis (Candida tropicalis; Table V): (c)

CC(=O)O.N=C(N)NCCC[C@H](NC(=O)OCc1ccccc1)C(=O)Nc1ccc([N+](=O)[O-])cc1 [Cbo-L-Arg-pNA.AcOH]
Reading at 24 h (Candida albicans): -

O=C(Nc1ccc([N+](=O)[O-])cc1)[C@@H]1CCCN1C(=O)OCc1ccccc1 [Cbo-L-Pro-pNA]
Reading at 24 h (Candida albicans): -

N=C(N)NCCC[C@H](NC(=O)[C@H]1CCCN1C(=O)[C@H]1CCCN1)C(=O)Nc1ccc([N+](=O)[O-])cc1 [H-D-Pro-D-Pro-L-Arg-pNA.2AcOH] (H-[dP]-[dP]-Arg-pNA)
Reading at 24 h (Candida tropicalis): -

N=C(N)NCCC[C@H](NC(=O)[C@@H]1CCCN1C(=O)CNC(=O)[C@H]1CCCN1)C(=O)Nc1ccc([N+](=O)[O-])cc1 [H-D-Pro-Gly-L-Pro-L-Arg-pNA.2AcOH] (H-[dP]GPR-pNA)
T. GLABRATA reading at 24 h (T. glabrata): +
C. TROPICALIS reading at 24 h (Candida tropicalis): +

N=C(N)NCCC[C@H](NC(=O)[C@@H](NC(=O)[C@H]1CCCN1)c1ccccc1)C(=O)Nc1ccc([N+](=O)[O-])cc1 [H-D-Pro-L-Phg-L-Arg-pNA.2AcOH] (H-[dP]-[Phg]-Arg-pNA)
T. GLABRATA reading at 24 h (T. glabrata): -
C. TROPICALIS reading at 24 h (Candida tropicalis): ++

N=C(N)NCCC[C@H](NC(=O)[C@@H]1CCCN1C(=O)[C@H]1CCCN1)C(=O)Nc1ccc([N+](=O)[O-])cc1 [H-D-Pro-L-Pro-L-Arg-pNA.2AcOH] (H-[dP]-Pro-Arg-pNA)
Reading at 24 h (Candida tropicalis): ++++

N=C(N)NCCC[C@H](NC(=O)[C@@H]1CCCN1C(=O)CNC(=O)CN)C(=O)Nc1ccc([N+](=O)[O-])cc1 [H-Gly-Gly-L-Pro-L-Arg-pNA.2AcOH] (H-GGPR-pNA)
T. GLABRATA reading at 24 h (T. glabrata): +
Reading at 24 h (Candida krusei): ++
C. TROPICALIS reading at 24 h (Candida tropicalis): +
Specificity: interference with C. tropicalis (Candida tropicalis; Table IV): (d)

N=C(N)NCCC[C@H](NC(=O)[C@@H]1CCCCN1C(=O)CN)C(=O)Nc1ccc([N+](=O)[O-])cc1 [H-Gly-L-Pip-L-Arg-pNA.2AcOH] (H-Gly-[Pip]-Arg-pNA)
Specificity: interference with C. tropicalis (Candida tropicalis; Table I): (b)
Reading at 24 h (Candida albicans): ++

NCC(=O)N1CCC[C@H]1C(=O)Nc1ccc([N+](=O)[O-])cc1 [H-Gly-L-Pro-pNA.AcOH] (H-Gly-Pro-pNA)
hydrolysis by the strains of C. tropicalis (C. tropicalis): hydrolyzed

CC(=O)O.O=C(Nc1ccc([N+](=O)[O-])cc1)[C@H]1NCCC1O (stereo partly drawn) [H-L-3Hyp-pNA.AcOH]
Specificity: nonspecific for the strains of Candida albicans (Candida albicans): (a)
Reading at 24 h (Candida albicans): +++

N=C(N)NCCC[C@H](NC(=O)[C@@H]1CCCN1C(=O)[C@@H]1C[C@@H](O)CN1)C(=O)Nc1ccc([N+](=O)[O-])cc1 [H-L-4Hyp-L-Pro-L-Arg-pNA.2AcOH] (H-[Hyp]-Pro-Arg-pNA)
Specificity: interference with C. tropicalis (Candida tropicalis; Table I): (b)
Reading at 24 h (Candida albicans): ++++

CC(=O)O.O=C(Nc1ccc([N+](=O)[O-])cc1)[C@@H]1CC(O)CN1 (stereo partly drawn) [H-L-4Hyp-pNA.AcOH]
Specificity: nonspecific for the strains of Candida albicans (Candida albicans): (a)
Reading at 24 h (Candida albicans): +++

C[C@H](N)C(=O)N[C@@H](C)C(=O)N1CCC[C@H]1C(=O)Nc1ccc([N+](=O)[O-])cc1 [H-L-Ala-L-Ala-L-Pro-pNA.AcOH] (H-Ala-Ala-Pro-pNA)
Specificity: nonspecific for the strains of Candida albicans (Candida albicans): (a)
Reading at 48 h (Candida albicans; same medium, reading at 48 h): +

C[C@H](N)C(=O)N1CCC[C@H]1C(=O)Nc1ccc([N+](=O)[O-])cc1 [H-L-Ala-L-Pro-pNA.AcOH] (H-Ala-Pro-pNA)
Specificity: nonspecific for the strains of Candida albicans (Candida albicans): (a)
Reading at 24 h (Candida albicans): ++

CC(=O)O.CC(=O)O.N=C(N)NCCC[C@H](N)C(=O)Nc1ccc([N+](=O)[O-])cc1 [H-L-Arg-pNA.2AcOH]
Specificity: nonspecific for the strains of Candida albicans (Candida albicans): (a)
Reading at 24 h (Candida albicans): +++

CC(=O)O.O=C(Nc1ccc2ccccc2c1)[C@@H]1C[C@@H](O)CN1 [H-L-Hyp-NA.AcOH, reference compound]
Specificity: nonspecific for the strains of Candida albicans (Candida albicans): (a)
Reading at 24 h (Candida albicans): ++

CC(C)C[C@H](N)C(=O)NCC(=O)N[C@@H](CCCNC(=N)N)C(=O)Nc1ccc([N+](=O)[O-])cc1 [H-L-Leu-Gly-L-Arg-pNA.2AcOH] (H-Leu-Gly-Arg-pNA)
Reading at 24 h (Candida tropicalis): ++++

CC(=O)O.COc1cc(NC(=O)[C@@H]2CCCN2)cc2ccccc12 [H-L-Pro-(4-MeO)NA.AcOH, reference compound]
Reading at 24 h (Candida albicans): -
